Reference: US10080747B2, “Nicotinic attenuation of CNS inflammation and autoimmunity” (priority 2008, dated 2018)
Where two headings read alike, the source gives them in different places.

Assays:
[1] = system: acute EAE in B6 mice; conditions: for mean clinical score, remaining mild motor deficit after recovery: PBS 2.75±0.25; for mean maximal clinical score: scale 0 to 5, PBS 4.25±0.80
[2] = system: MOG35-55-specific T cells; conditions: splenocytes day 11 p.i.
Description: Isotype-matched negative monoclonal antibodies were used as controls.

[3] = system: spinal cord of EAE mice; conditions: day 25 p.i., vs PBS
Experimental: Mice were anesthetized with pentobarbital and perfused by intracardiac puncture with 50 ml of cold PBS. Spinal cords were removed and fixed in 10% formalin/PBS. Paraffin-embedded longitudinal sections were prepared and stained for hematoxylin and eosin (H&E), luxol fast blue (LFB, myelin staining) and Biechowsky silver (axon staining). The percentages of spinal cord inflammation, demyelination and axonal damage per mouse were calculated by first determining the total white matter area for all spinal cord sections by manually tracing the regions. Next, the areas of spinal cord inflammation, demyelination and axonal damage were determined by manually tracing each section. Pathological changes in each spinal cord were scored as follows: 0 no changes; 1 focal area involvement; 2 <5% of total myelin area involved; 3 5-10% of total myelin area involved; 4 10-20% involved area; 5 >20% of total myelin area involved (Bai, X. F., et al., J Exp Med 200:447-458).

[4] = system: MOG-specific antibodies
Experimental: MOG-reactive antibodies were quantified by enzyme-linked immunoabsorbent assay (ELISA). Briefly, microtiter plates (Corning Glass Works, Corning, N.Y., USA) were coated with 100 μl/well of murine MOG35-55 (10 μg/ml) at 4° C. overnight. After blocking with 10% fetal bovine serum, serum samples (day 11, peak stage after immunization) were added and incubated at 4° C. overnight. Plates were then incubated for 2 h with biotinylated rabbit anti-mouse IgG, IgG1, IgG2a, IgA, IgG3 and IgG2b (Invitrogen, Carlsbad, Calif., USA), followed by alkaline phosphatase-conjugated ABC reagent (Dakopatts; R&D systems, Minneapolis, Minn., USA). The color was developed with p-nitrophenyl-phosphate. Results were expressed as optical density (OD) at […].

[5] = system: adoptively transferred EAE in B6 mice; conditions: recipients of T cells from nicotine-treated donors
[6] = system: spleen mononuclear cells; conditions: day 11 p.i.
[7] = system: CNS mononuclear cells; conditions: day 11 p.i.
Experimental: For CNS cell isolates, at day 11 after EAE induction (peak stage), mice were sacrificed and perfused with PBS through the left heart ventricle to eliminate contaminating blood cells in the CNS. The CNS mononuclear cells were then isolated from five to six mice using Percoll gradients and stained for cell surface markers. Antibodies were directly labeled and analyzed as done for splenocytes. The absolute number of a particular cell subset was calculated by counting the total number of mononuclear cells isolated from the CNS of individual mice and multiplying by the percentage of those cells acquired by FACSAria flow cytometry (Bai, X. F., et al., J Exp Med 200:447-458).

[8] = system: spleen mononuclear cells; conditions: annexin V and PI double staining, at the current dose (13 mg/kg/d)
Experimental: Cell viability was assessed by trypan blue dye exclusion. […] Single cell suspensions were washed in PBS and resuspended in binding buffer containing annexin V-FITC and propidium iodide (PI) (both from BD Biosciences) for 20 min at room temperature. The samples were analyzed on a FACSAria using Diva.

[9] = system: Th cells
Experimental: Single cell suspensions (4×10^7 cells) were prepared and incubated at 37° C. for 3 days in round-bottom plates (2×10^6 cells/well) with or without antigens (MOG 10 μg/ml, PLP 10 µg/ml or Con A 2.5 μg/ml), and stimulated with PMA (20 ng/ml)/ionomycin (1 μg/ml)/brefeldin A (5 μg/ml) for another 5 h at 37° C. After harvesting, cells were stained for surface markers with fluorochrome-conjugated monoclonal antibodies including anti-CD3-PE/Cy5 (17A2), anti-CD4-APC/Cy7 (GK1.5), and anti-CD8α-PE/Cy7 (53-6.7) (BD Bioscience). Isotype-matched negative monoclonal antibodies were used as controls. For intracellular cytokine staining, after fixation and permeabilization with Cytofix/Cytoperm kit (BD Bioscience), anti-IFN-γ, anti-IL-4, anti-IL-10 and anti-IL-17 monoclonal antibody conjugated with Alexa 647 were used. All samples were analyzed on a FACSAria using Diva. To determine the percentage of cells producing cytokine, the value obtained with the isotype control was subtracted from that with specific antibody. For cytokine induction, supernatants were collected 3 days after in vitro boosting. IFN-γ, IL-10, IL-2 and TGF-β were measured by optEIA kits (PharMingen and eBioscience).

[10] = nicotine pre-treated group (day −7)
[11] = serum day 11 after immunization, vs control mice
[12] = supernatants of splenocytes cultured with MOG35-55, vs controls

How did the “onset of EAE” value ([1]; nicotine 13 mg/kg/d for 7 days by minipump, prior to or on the day of disease induction, PBS controls 7.6±0.53 days) turn out when `CN1CCCC1c1cccnc1` (centres unmarked) [nicotine] was run?
The value was ≥ 10 day p.i.

What about the “day by which the majority of animals recovered” value [1, 10] of the same compound?
Its value is ≤ 21 days.

And the “mean clinical score, remaining mild motor deficit after recovery” value [1, 10]?
The value was 0.83±0.26.

And the “day by which the majority of animals recovered” value ([1]; nicotine-treated group (day 0))?
The value was ≤ 24 days.

What about the “mean clinical score, remaining mild motor deficit after recovery” value ([1]; nicotine-treated group (day 0)) of the same compound?
Its value is 0.85±0.25.

What about the “mean maximal clinical score” value ([1]; pre-treatment starting day −7, 13 mg/kg/d x 7) of the same compound?
Its value is 3.17±0.78.

And the “mean maximal clinical score” value ([1]; treatment starting day 0 after immunization, 13 mg/kg/d x 7)?
The value was 3.13±0.25.

And the “severity of EAE compared with PBS” value ([1]; treatment starting day 7 p.i. when EAE signs began, 13 mg/kg/d x 7)?
Its value is “significantly milder EAE”.

What about the “mean clinical score at the termination of experiments” value ([1]; treatment starting day 7 p.i., 13 mg/kg/d x 7) of the same compound?
Its value is 0.69±0.43.

And the “T cell proliferation in response to MOG, 3H incorporation” value ([2]; p<0.05 vs PBS)?
The value was “far fewer T cells”.

And the “proliferation of CD3+, CD4+ and CD8+ T cells in response to MOG, CFSE assay” value ([2]; vs PBS)?
Its value is “reduced proliferation”.

What about the “axonal damage, Biechowsky silver” value [3] of the same compound?
The value was “scarcely affected”.

What about the “demyelination, LFB staining” value [3] of the same compound?
The value was “myelin sheets were largely preserved”.

And the “spinal cord inflammation (cellular infiltration), H&E” value [3]?
Its value is “few infiltrating cells”.

What about the “MOG-specific IgG2b production” value ([4]; mouse, in vivo) of the same compound?
Its value is “profoundly impaired”.

What about the “MOG-specific IgA synthesis” value [4, 11] of the same compound?
Its value is “markedly increased”.

What about the “MOG-specific IgG1 synthesis” value [4, 11] of the same compound?
Its value is “markedly increased”.

What about the mean clinical score [5] of the same compound?
Its mean clinical score is 1.0±0.15.

And the maximal clinical score ([5]; control 5.0±0.25)?
The maximal clinical score was 2.5±0.82.

What about the “percentages and numbers of CD3+, CD4+ and CD8+ T cells and CD19+CD3− B cells among splenocytes” value ([6]; nicotine from day 0, vs control EAE mice, p<0.05) of the same compound?
Its value is “various degrees of reductions”.

What about the “expression of Foxp3” value ([6]; spleen, vs PBS) of the same compound?
Its value is “clearly augmented”.

And the “NK cells, NKT cells and CD4+CD25+ regulatory T cells in spleen” value ([6]; vs PBS)?
Its value is “did not differ significantly”.

And the “expression of MHC class II, CD80 and CD86 on peripheral CD11c+ and CD11b+ cells” value ([6]; vs PBS)?
The value was “reductions in the expression of MHC class II, CD80 and CD86 were notable”.

What about the “numbers and percentages of CD11c+ and CD11b+ cells in spleen” value ([6]; vs PBS) of the same compound?
Its value is “not dramatically altered”.

And the “CD11b+ (macrophage/microglia) and CD11c+ (dendritic) cells in the CNS” value ([7]; vs PBS)?
Its value is “lower percentages and absolute numbers”.

And the “expression of MHC class II, CD80 and CD86 on CNS CD11c and CD11b cells” value ([7]; vs PBS)?
Its value is “reduced”.

What about the “numbers of T cells (CD3+, CD4+, CD8+) and B cells (CD3−CD19+) in the CNS” value ([7]; vs PBS-treated EAE mice) of the same compound?
Its value is “drastically reduced”.

And the “T cell apoptosis and death” value [8]?
Its value is “did not induce T cell apoptosis”.

And the “production of TGF-β1” value ([9]; supernatants of splenocytes cultured with MOG35-55, p<0.01)?
Its value is “significantly augmented”.

What about the “production of IL-10” value ([9]; supernatants of splenocytes cultured with MOG35-55, p<0.05) of the same compound?
Its value is “significantly augmented”.

What about the IFN-γ production [9, 12] of the same compound?
Its IFN-γ production is “significant decrease”.

What about the “production of IL-2” value [9, 12] of the same compound?
The value was “decreased”.
